For the assay, the target named is T1, human PTP-1B (Homo sapiens, UniProt P18031).
T1 construct: recombinant human PTP-1B[1-298] or PTP-1B[1-322]
T1 sequence (P18031 1-298 limits assumed): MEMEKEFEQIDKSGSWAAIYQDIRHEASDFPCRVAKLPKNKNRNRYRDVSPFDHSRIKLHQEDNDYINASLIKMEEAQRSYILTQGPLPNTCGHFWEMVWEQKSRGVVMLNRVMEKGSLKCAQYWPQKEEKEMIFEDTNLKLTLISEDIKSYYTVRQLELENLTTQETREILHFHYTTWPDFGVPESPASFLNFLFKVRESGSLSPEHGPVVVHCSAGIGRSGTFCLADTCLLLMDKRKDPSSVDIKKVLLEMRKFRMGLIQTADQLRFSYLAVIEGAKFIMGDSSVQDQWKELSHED
In words: PTP-1B inhibitory activity in vitro (IC50). In kind it is biochemical. The note with it: inhibitory activity to human PTP-1B. The procedure: Assessment of human PTP-1B (hPTP-1B) activity in the presence of various agents is determined by measuring the amount of inorganic phosphate released from a phosphopeptide substrate using a 96-well microtiter plate format. The assay (100 μL) is performed in an assay buffer comprised of 50 mM TRIS (pH 7.5), 50 mM NaCl, 3 mM DTT at ambient temperature. The assay is typically performed in the presence of 0.4% dimethyl sulfoxide (DMSO). However, concentrations as high as 10% are used with certain poorly soluble compounds. […] Inorganic phosphate, a product of the enzyme reaction, is quantitiated after 15 min as the green color resulting from complexing with the […] reagent and is determined as an A620 using a Molecular Devices (Sunnyvale, Calif.) SpectraMAX Plus spectrophotometer. […] Activity is defined as the net change in absorbance resulting from the activity of the uninhibited hPTP-1B[1-411] minus that of a tube with acid-inactivated hPTP-1B[1-411]. […] Alternatively, the assessment of human PTP-1B activity in the presence of various agents may be determined by measuring the hydrolysis products of known competing substrates. For example, cleavage of substrate para-nitrophenylphosphate (pNPP) results in the release of the yellow-colored para-nitrophenol (pNP) which can be monitored in real time using a spectrophotometer. […] Absorbance at 405 nm is measured using any standard 384 well plate reader. […]

Our source for the IC50 values is patent publication US8252820B2, “1-orthofluorophenyl substituted 1,2,5-thiazolidinedione derivatives as PTP-as inhibitors” (Novartis AG, priority 2005, dated 2012).

Usually IC50 stands for the concentration that inhibits the measured activity by half. Low values mean inhibition by little substance, high ones a need for much substance.

Counter-ions that a name gives are not always drawn.

In the case of `O=C1CN(c2c(O)cc(CC3CCCCC3)cc2F)S(=O)(=O)N1` [Example No. 13, 5-(4-Cyclohexylmethyl-2-fluoro-6-hydroxyphenyl)-1,1-dioxo-1,2,5-thiadiazolidin-3-one], inhibition was half-maximal at 104 nM (IC50). The result for `O=C1CN(c2c(O)c(F)cc(F)c2F)S(=O)(=O)N1` [Example No. 26, 1,1-Dioxo-5-(2,3,6-trifluoro-6-hydroxy-phenyl)-1,2,5]thiadiazolidin-3-one potassium salt] reads 158 nM.
